Test results from US8431615B2, “Dose forms” (priority 2004, dated 2013).

Key:
[1] = Predicted human liver exposures versus replicon assay IC50/IC90; conditions: dose range studied
From the text: Liver exposures to VX-950 were predicted based on the integrated preclinical and clinical data.

HCV genotype 1 = test: Multiple-dose 14-day study, plasma HCV RNA (Roche COBAS TaqMan HCV/HPS assay); format: in vivo, human
From the text: Detection of HCV RNA was done using the Roche COBAS TaqMan HCV/HPS assay, available from Roche molecular Diagnostics. Other assays are available.

IFN-β promoter activity = test: IFN-β promoter luciferase activity in Sendai virus stimulated Huh7 cells expressing HCV protease; conditions: 10 μM VX-950, Sendai virus infected Huh7 cells, WT HCV protease
neopterin = test: Multiple-dose 14-day study, serum neopterin (competitive ELISA); conditions: 750 mg q8h, day 14; baseline 10.48±0.84 nmol/l; ULN 7.7 nmol/l
HCV NS3/4A protease = HCV NS3/4A protease (Hepatitis C virus genotype 1a, UniProt P27958); test: In vitro cleavage of TRIF by HCV NS3/4A protease; format: biochemical; conditions: 10 μM VX-950, tNS3 protease 0-4 μM
Description: The 35S methionine labeled coupled in vitro transcription/translation product of TRIF protein (as a substrate) was incubated with increasing concentration of tNS3 protease enzyme ranging from 0-4 μM either in the presence (Circles) or absence (Squares) of 10 μM VX-950, followed by SDS-PAGE and exposure to phosphorimager.

WT-HCV protease-SEAP = conditions: SCID mice expressing WT-HCV protease-SEAP; cited from earlier work
[2] = tested on: AST (aspartate aminotransferase); test: Multiple-dose 14-day study, AST; format: in vivo, human; conditions: upon administration of VX-950
[3] = in vivo
[4] = tested on: ALT (alanine aminotransferase); test: Multiple-dose 14-day study, serum ALT; conditions: 450 mg q8h, day 12; 5 out of 10 samples missing

HCV NS3/4A protease, sequence (P27958 1027-1208, other chains not shown): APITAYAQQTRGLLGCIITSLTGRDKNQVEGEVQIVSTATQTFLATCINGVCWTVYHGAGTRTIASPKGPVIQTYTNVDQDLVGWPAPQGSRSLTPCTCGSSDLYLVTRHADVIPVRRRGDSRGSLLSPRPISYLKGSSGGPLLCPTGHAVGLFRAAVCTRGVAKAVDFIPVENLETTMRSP

With `CCC[C@H](NC(=O)[C@@H]1[C@H]2CCC[C@H]2CN1C(=O)[C@@H](NC(=O)[C@@H](NC(=O)c1cnccn1)C1CCCCC1)C(C)(C)C)C(=O)C(=O)NC1CC1` [VX-950] the “predicted average liver concentration as multiple of the replicon assay IC50” value [1] was “up to 113 fold”, the “predicted average liver concentration as multiple of the replicon assay IC90” value [1] was “up to 57 fold” and the “Maximum change from baseline in HCV RNA (log10 IU/mL), subjects in category” value (HCV genotype 1; category >−1 to <0, 450 mg q8 h (n = 10)) was 0 n. For the same compound, the “Maximum change from baseline in HCV RNA (log10 IU/mL), subjects in category” value (HCV genotype 1; category >−1 to <0, 750 mg q8 h (n = 8)) was 0 n, the “Maximum change from baseline in HCV RNA (log10 IU/mL), subjects in category” value (HCV genotype 1; category >−1 to <0, 1250 mg q12 h (n = 10)) was 0 n and the “Maximum change from baseline in HCV RNA (log10 IU/mL), subjects in category” value (HCV genotype 1; category >−2 to ≦−1, 450 mg q8 h (n = 10)) was 0 n. For the same compound, the “Maximum change from baseline in HCV RNA (log10 IU/mL), subjects in category” value (HCV genotype 1; category >−2 to ≦−1, 750 mg q8 h (n = 8)) was 0 n, the “Maximum change from baseline in HCV RNA (log10 IU/mL), subjects in category” value (HCV genotype 1; category >−2 to ≦−1, 1250 mg q12 h (n = 10)) was 0 n and the “Maximum change from baseline in HCV RNA (log10 IU/mL), subjects in category” value (HCV genotype 1; category >−3 to ≦−2, 450 mg q8 h (n = 10)) was 1 n. For the same compound, the “Maximum change from baseline in HCV RNA (log10 IU/mL), subjects in category” value (HCV genotype 1; category >−3 to ≦−2, 750 mg q8 h (n = 8)) was 0 n, the “Maximum change from baseline in HCV RNA (log10 IU/mL), subjects in category” value (HCV genotype 1; category >−3 to ≦−2, 1250 mg q12 h (n = 10)) was 1 n and the “Maximum change from baseline in HCV RNA (log10 IU/mL), subjects in category” value (HCV genotype 1; category >−4 to ≦−3, 450 mg q8 h (n = 10)) was 7 n. For the same compound, the “Maximum change from baseline in HCV RNA (log10 IU/mL), subjects in category” value (HCV genotype 1; category >−4 to ≦−3, 750 mg q8 h (n = 8)) was 3 n, the “Maximum change from baseline in HCV RNA (log10 IU/mL), subjects in category” value (HCV genotype 1; category >−4 to ≦−3, 1250 mg q12 h (n = 10)) was 9 n and the “Maximum change from baseline in HCV RNA (log10 IU/mL), subjects in category” value (HCV genotype 1; category >−5 to ≦−4, 450 mg q8 h (n = 10)) was 0 n. The “Maximum change from baseline in HCV RNA (log10 IU/mL), subjects in category” value (HCV genotype 1; category >−5 to ≦−4, 750 mg q8 h (n = 8)) was 3 n, the “Maximum change from baseline in HCV RNA (log10 IU/mL), subjects in category” value (HCV genotype 1; category >−5 to ≦−4, 1250 mg q12 h (n = 10)) was 0 n and the “Maximum change from baseline in HCV RNA (log10 IU/mL), subjects in category” value (HCV genotype 1; category ≧−5, 450 mg q8 h (n = 10)) was 2 n. For the same compound, the “Maximum change from baseline in HCV RNA (log10 IU/mL), subjects in category” value (HCV genotype 1; category ≧−5, 750 mg q8 h (n = 8)) was 2 n, the “Maximum change from baseline in HCV RNA (log10 IU/mL), subjects in category” value (HCV genotype 1; category ≧−5, 1250 mg q12 h (n = 10)) was 0 n and the “drop in viral load, every patient” value (HCV genotype 1; during administration, all dose groups) was greater than 2 log10. For the same compound, the “subjects with a 3 log10 reduction in HCV-RNA” value (HCV genotype 1; within the first three days, of the 28 subjects receiving VX-950) was 26, the “effect on IFNβ dependent gene expression” value (IFN-β promoter activity) was “restores IFNβ dependent gene expression” and the mean neopterin (neopterin) was 7.32 ± 0.48 nmol/L. For the same compound, the “effect on in vitro cleavage of TRIF” value (HCV NS3/4A protease) was “inhibits in vitro cleavage of TRIF”, the “effect on elevated ALT levels in animal model” value (WT-HCV protease-SEAP) was “ameliorates elevated ALT levels” and the “effect on AST levels” value [2] was “decreased”. For the same compound, the “severe (grade 3 or grade 4) adverse events” value [3] was “No adverse events were considered to be severe”, the “ALT level, median” value [4] was 38 U/l and the “ALT level, range” value [4] was 25-125 U/l.
